Measurements reported in patent US10231939B2, “Hydroxytyrosol and oleuropein compositions for induction of DNA damage, cell death and LSD1 inhibition” (priority 2012, dated 2019).
“And” between values parts separate entries of the source, which are not always exact repeats. Identical values can stand only once.

Columns and labels:
Format in all cases: cell-based, human
[1] = system: K562 cells; assay: Apo-ONE Homogeneous Caspase 3/7 assay, K562
Procedure: Apoptosis was determined by cell lysis prior to measuring caspase-3/7 enzymatic activity with Apo-ONE Homogeneous Caspase-3/7 Assay kit (Promega, Wis., USA), according to the manufacturer's instructions. Following determination of growth inhibition as described above, Apo-1 substrate/buffer mix was added to each well at a ratio of 1:1 and incubated for 4 hours on a rotating platform in the dark at 22° C. The fluorescence intensity (λex=485 nm and λem=525 nm) was determined on a Victor3 multilabel plate counter (PerkinElmer, Waltham, Mass., USA). Apoptosis was reported as the change in fluorescence over 4 hours and after subtraction of the media control.

[2] = system: K562 cells; assay: mRNA-Sequencing, K562 cells; settings: 24 hours
Procedure: Cells were seeded at densities of 1×10^6/mL in culture flasks (Nalge Nunc, New York, USA) and treated with hydroxytyrosol (0, 20, 100 μM), for 24 hours at 37° C., 5% (v/v) CO2. mRNA sequencing was performed by TRIZOL extraction and library preparation using Illumina kits according to manufacturer's protocols. Next generation sequencing (NGS) was performed at a depth of approximately 20 million mapped reads per sample to determine the effect of hydroxytyrosol on genome-wide gene expression, in human erythroleukemic K562 cells and human keratinocytes (24 hr treatment, 20 and 100 μM). Reads generated by the Illumina base calling software V1.6 were aligned with Burrows Wheeler Aligner to the human transcriptome database curated by RefSeq (Hg18 build). Raw counts were normalized to adjust for slightly differing data volume across lanes giving the widely used score reads per transcript per million reads. These scores were used to determine relative fold changes and the conventionally used ±1.5 fold-change, which is discernible with qRT-PCR, was defined a significant change in expression. The online program MetaCore (GeneGo Inc. St. Joseph, MI, USA) was used for pathway analysis.
Cells were seeded at densities of 1×10^6/mL in culture flasks (Nalge Nunc, New York, USA) and K562 cells were treated with or without 100 μM hydroxytyrosol for 24 hours at 37° C., 5% (v/v) CO2. mRNA sequencing was performed by TRIZOL extraction and library preparation using Illumina kits according to manufacturer's protocols. Next generation sequencing (NGS) was performed at a depth of approximately 20 million mapped reads per sample. Reads generated by the Illumina base calling software V1.6 were aligned with Burrows Wheeler Aligner to the human transcriptome database curated by RefSeq (Hg18 build). Raw counts were normalized to adjust for slightly differing data volume across lanes giving the widely used score reads per transcript per million reads. These scores were used to determine relative fold changes and the conventionally used ±1.5 fold-change, which is discernible with qRT-PCR, was defined a significant change in expression. The online program MetaCore (GeneGo Inc. St. Joseph, MI, USA) was used for pathway analysis. The Warburg gene-set shown in Table 10 was used to investigate changes in Warburg-related genes in human erythroleukemic compared to normal peripheral blood mononuclear cells and changes in expression of Warburg-related genes following incubation of K562 cells with hydroxytyrosol.

[3] = system: K562 cells; assay: Total Antioxidant Capacity Assay, K562; settings: 50 μM hydroxytyrosol or Formulation 2 (4× diluted), 24 hours
[4] = system: K562 cells; assay: Cell viability (Cell-Titer Blue), K562
Procedure: Cells were seeded at densities of 7,500 cells/in black flat bottom 96-well plates (Nalge Nunc, Penfield, N.Y., USA) and treated with a dose response of hydroxytyrosol (0-200 μM), oleuropein (0-800 μM), tyrosol (0-1000 μM) and homovanilic acid (0-1000 μM) for 24 hours at 37° C., 5% (v/v) CO2. Cell viability was determined after 24 hour exposure to hydroxytyrosol and measured using the Cell-Titer Blue® Assay kit (Promega, Madison, Wis., USA) according to the manufacturer's instructions. Cell-Titer Blue reagent was added to each well and incubated for 4 hours at 37° C., 5% CO2, before reading fluorescence intensity (550 nm excitation; 615 nm emission) using the Perkin Elmer Victor3 (Perkin Elmer, MA, USA) multi-label plate reader. Alternatively Cells were seeded at densities of 7,500 cells/in black flat bottom 96-well plates (Nalge Nunc, Penfield, N.Y., USA) and treated with 100 μM hydroxytyrosol for 24 hours at 37° C., 5% (v/v) CO2. […] Fluorescence intensity (λex=550 nm and λem=615 nm) was determined using a Perkin Elmer Victor3 multilabel microplate counter (PerkinElmer, Waltham, Mass., USA). Data were expressed as % relative cell viability compared to untreated cells after correction of subtracting the media control fluorescence reading.

[5] = 100 μM HT, negative = down-regulated
[6] = 100 μM HT, negative = down-regulated, listed as hydroxytyrosol
[7] = 100 μM hydroxytyrosol, unsigned

## OCCc1ccc(O)c(O)c1 [HT, 4-(2-hydroxyethyl)-1,2-benzenediol]
[1]; K562, hydroxytyrosol 24 hours
  caspase 3/7 apoptotic activity: significant dose dependent increase
[1]; K562, hydroxytyrosol or Formulation 2 (4× diluted), FIG. 25
  caspase 3/7 mediated apoptosis: significantly induce caspase 3/7 mediated apoptosis
[2]; 20 μM HT
  HDAC9 expression Fold Change (DOWN): 1.82 fold and 2.00 fold
  KDM4C expression Fold Change (DOWN): 1.61 fold
  NCOA2 expression Fold Change (DOWN): 1.63 fold
  PHF8 expression Fold Change (DOWN): 1.62 fold
  PRDM1 expression Fold Change (DOWN): 1.68 fold
  PRDM6 expression Fold Change (UP): 3.50 fold
  PRDM12 expression Fold Change (DOWN): 1.50 fold
  PRMT8 expression Fold Change (DOWN): 2.13 fold
[2]; 100 μM HT
  EHMT1 expression Fold Change (DOWN): 1.63 fold
  GTF3C4 expression Fold Change (DOWN): 1.55 fold
  HDAC7 expression Fold Change (DOWN): 1.76 fold and 1.78 fold
  HDAC9 expression Fold Change (UP): 2.05 fold and 1.50 fold
  KDM4A expression Fold Change (UP): 1.71 fold
  KDM4C expression Fold Change (DOWN): 1.66 fold
  KDM6B expression Fold Change (UP): 1.70 fold
  MLL3 expression Fold Change (DOWN): 1.68 fold
  NCOA2 expression Fold Change (DOWN): 1.50 fold
  NPM2 expression Fold Change (DOWN): 3.33 fold
  PPARGC1A expression Fold Change (UP): 2.00 fold
  PRDM6 expression Fold Change (DOWN): 2.00 fold
  PRDM9 expression Fold Change (UP): 1.85 fold
  PRDM10 expression Fold Change (DOWN): 1.92 fold
  PRDM12 expression Fold Change (UP): 2.00 fold
  PRDM15 expression Fold Change (DOWN): 1.78 fold
  PRMT8 expression Fold Change (DOWN): 1.89 fold
  RPS6KA5 expression Fold Change (UP): 1.56 fold
  SETD1A expression Fold Change (DOWN): 1.56 fold
  SETD7 expression Fold Change (UP): 3.41 fold
  SMYD3 expression Fold Change (UP): 1.60 fold and 1.57 fold
[2]; [5]
  ACLY expression Fold Change, K562 + 100 μM HT: −1.60 fold
  AKT3 expression Fold Change, K562 + 100 μM HT: 2.04 fold
  BBC3 expression Fold Change, K562 + 100 μM HT: 2.66 fold
  C12orf5 expression Fold Change, K562 + 100 μM HT: 3.57 fold
  CASP4 expression Fold Change, K562 + 100 μM HT: 1.87 fold
  CASP7 expression Fold Change, K562 + 100 μM HT: 2.27 fold
  CASP8 expression Fold Change, K562 + 100 μM HT: 1.62 fold
  ME1 expression Fold Change, K562 + 100 μM HT: 2.22 fold
  PFKFB2 expression Fold Change, K562 + 100 μM HT: −1.53 fold
  PFKFB4 expression Fold Change, K562 + 100 μM HT: −1.79 fold
  SLC1A4 expression Fold Change, K562 + 100 μM HT: 4.28 fold
  SREBF1 expression Fold Change, K562 + 100 μM HT: −1.69 fold
  TFR2 expression Fold Change, K562 + 100 μM HT: −1.90 fold
  TP53 expression Fold Change, K562 + 100 μM HT: 2.30 fold
  VEGFA expression Fold Change, K562 + 100 μM HT: 2.65 fold
[2]; [6]
  BBC3 expression Fold Change, K562 + 100 μM HT: 2.29 fold
  CASP7 expression Fold Change, K562 + 100 μM HT: 2.01 fold
  TP53 expression Fold Change, K562 + 100 μM HT: 1.91 fold
[2]; 100 μM hydroxytyrosol
  differentially expressed Warburg-related genes reversing expression towards that observed in PBMC cells: 87%
[2]; [7]
  ACLY down-regulated, fold change: 1.59 fold
  PFKB2 down-regulated, fold change: 1.53 fold
  PFKFB4 down-regulated, fold change: 1.79 fold
  transferrin receptor 2 (TRF2) down-regulated: 1.9 fold
[2]; 100 μM hydroxytyrosol, share of the 51 genes
  differential expression of the Warburg-related genes regulated in K562 vs PBMC: 30%
[3]
  total antioxidant capacity: deplete total antioxidant capacity
[4]; 20 or 100 μM, 24 hours
  cell viability of K562 cells: significantly reduced in a dose dependent manner
[4]; K562, hydroxytyrosol pre-treatment 24 hours, then doxorubicin
  effect on the cytotoxicity of doxorubicin: enhances the cytotoxicity of doxorubicin
